Results from patent publication US8592421B2, “Cyclic bioisosters of purine system derivatives and a pharmaceutical composition based thereon” (priority 2003, dated 2013).

Columns and labels:
[1] = system: embryonic fibroblasts of mouse NIH-3T3; experiment: Effect on endocellular pHi of fibroblasts (microspectrofluorimetry with FDA / BCECF-AM); assay type: cell-based; settings: for rise of pHi: fibroblasts in an attached spread state; for change of pHi: medium DME without blood serum, 20 minutes; for increase of pHi of cytosol: medium with 10.0% blood serum, 20 minutes after addition
Procedure: The effect of the compounds according to the invention on the endocellular pH, embryonic fibroblasts of mouse NIH-3T3 supplied by the All-Russian Collection of Cellular Cultures of the Institute of Cytology of the Russian Academy of Sciences St. Petersburg was investigated. The cells were grown in the DMEM (Sigma) medium containing 2.2 g/l of sodium bicarbonate with addition of 80.0 mkg/ml of gentamicin and 10.0% embryonal veal serum at a temperature of 37° C. in an atmosphere containing 5.0% of carbon dioxide. For these experiments use was also made of a medium buffer with 5.0 mM of HEPES and 15.0 mM of sodium bicarbonate without serum or with addition of 5.0% serum. The cells were calculated with the help of a hemocytometer. A share of the dead cells was determined by colouring trypan blue.
The measurements of the endocellular pHi were carried out with the help of colorants FDA (Sigma) and BCECF-AM (Calbiochem) on a microspectrofluorimeter by a standard technique (Koshevoy Yu. V., Akatov V. S., Grobova M. E. Microspectrofluorimeter for measuring endocellular pH (micro pH)”. Devices and equipment for studies in the field of physical-and-chemical biology and biotechnology. Pushchino, 1990. P. 8-14).
The cells at a temperature of 37° C. were colored within 5 minutes with 5.0 mkM PDA that before the colouring was prepared from a 10.0 mM solution in acetone by dilution for 30 minutes in a phosphatic buffer to 0.1 mM or 2.0 mkM 1.0 mM solution BCECF-AM in DMSO.
The two-wave method of determining pHi was used based on the ratio intensities of fluorescence of the cells on two wavelengths (Akatov V. S. et all), “Endocellular pH and substrate dependence of proliferation of fibroblasts of Chinese hamster, Cytology, 1991, 33 (7), p. 86-94). The fluorescence was excited by light at λ=490 nm, the emission was recorded simultaneously with two photomultipliers on wavelengths λ=535 nm and λ=570 nm. The K-ratio of the fluorescence on two wavelengths was determined with a deduction of the background fluorescence of the medium near the investigated cells for 40-60 individual cells, which are then averaged taking into account the measurement error. A thermostatically controlled table was used that allowed measurements to be conducted at a temperature of 37° C. An account was taken for the photodynamic damage of the pigmented cells during long-time continuous illumination by excited light. The readings were taken from a section of the preparation exposed to light for not more than 5 minutes.
The calibration curves for determining the absolute pHi values by magnitude K were constructed using the Thomas technique (Thomas J. A., Bushbaum R. N., Zimniak A. w Racker E. “Intracellular pH measurements in Ehrlich ascites tumor cells utilizing spectroscopic probe generated in situ”, Biochemistry, 1979, v. 18, p. 2210-2218), for which case the pigmented cells treated for 5-10 minutes with carboxyacidic nigericyn (Calbiochem) at a concentration of 5-10 mkg/ml was placed in a solution with a high content of potassium—130 mM KCl, 1.0 mM MgCl2, 20.0 mM of HEPES) and with pH values from 6.2 to 7.6. The K values were measured in the media with different pH assuming that pHi of the cells equals to the pH of the medium due to the action of nigericyn, which exchanges potassium ions for protons and at a high content of potassium in the medium counterbalances the pH of the medium and cells. Calibration curves were used based on the fluorescence of same medium with addition of 5.0 mkM of fluorescence or BCECF were used to the control the stability of the of the instrument readings.
The cells were colored by pigment BCECF-AM and pHi was measured 10 minutes after incubation in the medium with an appropriate pH value. […]

[2] = Electrochemical activity: polarographic reduction on mercury dripping electrode; assay type: physicochemical; settings: for number of electrons participating in the reduction reaction: calculated with Geirovsky-Ilkovich equation; for i: 2.0% sodium chloride background, 9·10^−4 M; for i / −E1/2: 37° C., forward trace, average for the group of compounds; for −E1/2: vs SCE; for half-wave potential more positive at reverse stroke compared to forward stroke: polarograms of reverse stroke
Procedure: The study was carried out on a general-purpose polarograph PU-1 with a two-coordinate recorder of the “LKD” type using a three-electrode thermostatically controlled polarographic cell and mercury dripping electrode (MDE) with forced separation of the drop and a dropping period of 0.5 second. A platinum wire was used as an auxiliary electrode and a saturated calomel electrode (SCE) was used as a control electrode.
2.0% solutions of sodium chloride having pH 7.0, 7.2, 7.4, 7.6 were used as a background; the pH values of the background solution were corrected by a solution of sodium hydroxide. The polarographic cell was filled with 5.0 ml of the background solution and for 5 minutes was purged with nitrogen for removing the dissolved oxygen. Then 0.5 ml of solution of the studied substance was added to the background solution, and the polarogram was recorded as a polarographic wave. The concentration of the compounds in the polarographic cell was 9·10^−4 M.
The pH was measured on the pH-meter with an accuracy of +0.05 pH units. The polarographic measurements were carried out at a temperature of 37° C. The recording of polarograms of the investigated materials was effected under conditions of DC current at a scanning rate of the potential 10.0 mV/s with a active scanning stroke from a potential 0 to −0.5 V and sweep retrace from a −0.5 V to 0. The electric-current sensitivity was 5.0 mkA. The scale by the coordinate of the potentials was 50.0 mV/cm. The values of potentials of the half-wave E1/2 of the investigated materials are given with respect to the SCE potential.
The polarogram parameters such as a limiting current ilim and E1/2 were determined by the graphic method. The number of electrons participating in the reaction was calculated on the basis of the analysis of the polarographic wave using the Geirovsky-Ilkovich equation.
The calculation of the number of electrons participating in the reduction reaction was effected using the Geirovsky-Ilkovich equation: […]

## O=c1[nH][nH]c(=O)c2ncncc12.[Li] [Compound 35, lithium salt of pyrimido[4,5-d]-6H-pyridazine-5,8-dione]
[1]; 2.0 mkg/ml, on the average
  rise of pHi: 0.10 unit pHi
  change of pHi: 0.08 unit pHi
  increase of pHi of cytosol: 0.12 unit pH
[1]; 20.0 mkg/ml, on the average
  rise of pHi: 0.07 unit pHi
  change of pHi: 0.08 unit pHi
[1]; 0.02 mkg/ml
  change of pHi: no effect was found
  increase of pHi of cytosol: do not initiate a change of pH
[1]; 0.2 mkg/ml
  change of pHi: no effect was found
[1]; 200 mkg/ml
  change of pHi: no effect was found
[1]; 1000 mkg/ml
  change of pHi: no effect was found
[1]; 0.2 mkg/ml, on the average
  increase of pHi of cytosol: 0.1 unit pH
[1]; 20.0 mkg/ml
  increase of pHi of cytosol: do not initiate a change of pH
[2]
  number of electrons participating in the reduction reaction: 3.5
  half-wave potential more positive at reverse stroke compared to forward stroke: 27.0 mV
[2]; pH 7.0
  i: 0.30 ± 0.05 mkA
  −E1/2: 0.08 ± 0.02 V
[2]; pH 7.2
  i: 0.26 ± 0.02 mkA
  −E1/2: 0.085 ± 0.015 V
[2]; pH 7.4
  i: 0.30 ± 0.03 mkA
  −E1/2: 0.085 ± 0.02 V
[2]; pH 7.6
  i: 0.30 ± 0.02 mkA
  −E1/2: 0.09 ± 0.02 V

## O=C([O-])c1ccc2c(=O)[nH][nH]c(=O)c2c1.O=C([O-])c1ccc2c(=O)[nH][nH]c(=O)c2c1.[Na+].[Na+] [Compound 18, disodium salt of 6-carboxy-benzo[d]-3H-pyridazine-1,4-dione]
[1]; 2.0 mkg/ml, on the average
  rise of pHi: 0.10 unit pHi
  change of pHi: 0.08 unit pHi
  increase of pHi of cytosol: 0.12 unit pH
[1]; 20.0 mkg/ml, on the average
  rise of pHi: 0.07 unit pHi
  change of pHi: 0.08 unit pHi
[1]; 0.02 mkg/ml
  change of pHi: no effect was found
  increase of pHi of cytosol: do not initiate a change of pH
[1]; 0.2 mkg/ml
  change of pHi: no effect was found
[1]; 200 mkg/ml
  change of pHi: no effect was found
[1]; 1000 mkg/ml
  change of pHi: no effect was found
[1]; 0.2 mkg/ml, on the average
  increase of pHi of cytosol: 0.1 unit pH
[1]; 20.0 mkg/ml
  increase of pHi of cytosol: do not initiate a change of pH
[2]
  number of electrons participating in the reduction reaction: 4.09
  half-wave potential more positive at reverse stroke compared to forward stroke: 30.0 mV
[2]; pH 7.0
  i: 0.23 ± 0.03 mkA
  −E1/2: 0.092 ± 0.02 V
[2]; pH 7.2
  i: 0.30 ± 0.01 mkA
  −E1/2: 0.09 ± 0.01 V
[2]; pH 7.4
  i: 0.29 ± 0.02 mkA
  −E1/2: 0.092 ± 0.02 V
[2]; pH 7.6
  i: 0.31 ± 0.02 mkA
  −E1/2: 0.09 ± 0.01 V

## O=c1[nH][nH]c(=O)c2ncccc12.[Na] [Compound 7, sodium salt of pyrido[2,3-d]-6H-pyridazine-5,8-dione]
[1]; 2.0 mkg/ml, on the average
  rise of pHi: 0.10 unit pHi
  change of pHi: 0.08 unit pHi
  increase of pHi of cytosol: 0.12 unit pH
[1]; 20.0 mkg/ml, on the average
  rise of pHi: 0.07 unit pHi
  change of pHi: 0.08 unit pHi
[1]; 0.02 mkg/ml
  change of pHi: no effect was found
  increase of pHi of cytosol: do not initiate a change of pH
[1]; 0.2 mkg/ml
  change of pHi: no effect was found
[1]; 200 mkg/ml
  change of pHi: no effect was found
[1]; 1000 mkg/ml
  change of pHi: no effect was found
[1]; 0.2 mkg/ml, on the average
  increase of pHi of cytosol: 0.1 unit pH
[1]; 20.0 mkg/ml
  increase of pHi of cytosol: do not initiate a change of pH
[2]
  number of electrons participating in the reduction reaction: 3.72
  half-wave potential more positive at reverse stroke compared to forward stroke: 25.0 mV
[2]; pH 7.0
  i: 0.26 ± 0.04 mkA
  −E1/2: 0.11 ± 0.02 V
[2]; pH 7.2
  i: 0.31 ± 0.02 mkA
  −E1/2: 0.11 ± 0.03 V
[2]; pH 7.4
  i: 0.27 ± 0.03 mkA
  −E1/2: 0.105 ± 0.01 V
[2]; pH 7.6
  i: 0.30 ± 0.01 mkA
  −E1/2: 0.105 ± 0.02 V
